Data as given in the NIST ThermoML archive (doi:10.1021/acs.jced.8b00979).

Test: xn = mol fraction of the nth substance listed
Conditions: 100 kPa, Liquid; for viscosity: Capillary tube (Ostwald / Ubbelohde) method; for mass density: Vibrating tube method

CCC(C)CO (stereo not given) [2-methyl-1-butanol] + CCCCCO
Conditions	mass density [kg/m3]	viscosity [mPa·s]
288.15 K, x2 = 0	823.35	6.439
288.15 K, x2 = 0.1	822.86	6.245
288.15 K, x2 = 0.2	822.37	6.036
288.15 K, x2 = 0.3	821.88	5.819
288.15 K, x2 = 0.399	821.4	5.595
288.15 K, x2 = 0.5	820.92	5.361
288.15 K, x2 = 0.6	820.44	5.128
288.15 K, x2 = 0.699	819.96	4.916
288.15 K, x2 = 0.799	819.5	4.741
288.15 K, x2 = 0.899	819.03	4.697
293.15 K, x2 = 0	819.64	5.3
293.15 K, x2 = 0.1	819.15	5.146
293.15 K, x2 = 0.2	818.66	4.998
293.15 K, x2 = 0.3	818.19	4.837
293.15 K, x2 = 0.399	817.71	4.677
293.15 K, x2 = 0.5	817.24	4.516
293.15 K, x2 = 0.6	816.77	4.362
293.15 K, x2 = 0.699	816.3	4.196
293.15 K, x2 = 0.799	815.84	4.062
293.15 K, x2 = 0.899	815.38	4.046
298.15 K, x2 = 0	815.85	4.501
298.15 K, x2 = 0.1	815.37	4.383
298.15 K, x2 = 0.2	814.9	4.255
298.15 K, x2 = 0.3	814.43	4.129
298.15 K, x2 = 0.399	813.97	3.988
298.15 K, x2 = 0.5	813.51	3.848
298.15 K, x2 = 0.6	813.05	3.72
298.15 K, x2 = 0.699	812.6	3.604
298.15 K, x2 = 0.799	812.15	3.507
298.15 K, x2 = 0.899	811.7	3.489
303.15 K, x2 = 0	812.12	3.825
303.15 K, x2 = 0.1	811.64	3.725
303.15 K, x2 = 0.2	811.17	3.63
303.15 K, x2 = 0.3	810.71	3.518
303.15 K, x2 = 0.399	810.26	3.402
303.15 K, x2 = 0.5	809.8	3.287
303.15 K, x2 = 0.6	809.34	3.197
303.15 K, x2 = 0.699	808.89	3.114
303.15 K, x2 = 0.799	808.45	3.051
303.15 K, x2 = 0.899	808	3.018
308.15 K, x2 = 0	808.29	3.265
308.15 K, x2 = 0.1	807.82	3.176
308.15 K, x2 = 0.2	807.36	3.099
308.15 K, x2 = 0.3	806.92	3.007
308.15 K, x2 = 0.399	806.47	2.921
308.15 K, x2 = 0.5	806.03	2.831
308.15 K, x2 = 0.6	805.58	2.765
308.15 K, x2 = 0.699	805.15	2.701
308.15 K, x2 = 0.799	804.71	2.66
308.15 K, x2 = 0.899	804.28	2.648
313.15 K, x2 = 0	804.41	2.783
313.15 K, x2 = 0.1	803.95	2.717
313.15 K, x2 = 0.2	803.51	2.657
313.15 K, x2 = 0.3	803.07	2.59
313.15 K, x2 = 0.399	802.64	2.528
313.15 K, x2 = 0.5	802.21	2.468
313.15 K, x2 = 0.6	801.78	2.419
313.15 K, x2 = 0.699	801.35	2.365
313.15 K, x2 = 0.799	800.93	2.327
313.15 K, x2 = 0.899	800.51	2.323
318.15 K, x2 = 0	800.47	2.379
318.15 K, x2 = 0.1	800.02	2.329
318.15 K, x2 = 0.2	799.6	2.281
318.15 K, x2 = 0.3	799.18	2.232
318.15 K, x2 = 0.399	798.76	2.187
318.15 K, x2 = 0.5	798.34	2.141
318.15 K, x2 = 0.6	797.93	2.103
318.15 K, x2 = 0.699	797.52	2.07
318.15 K, x2 = 0.799	797.11	2.041
318.15 K, x2 = 0.899	796.7	2.028
323.15 K, x2 = 0	796.47	2.06
323.15 K, x2 = 0.1	796.04	2.016
323.15 K, x2 = 0.2	795.63	1.98
323.15 K, x2 = 0.3	795.22	1.942
323.15 K, x2 = 0.399	794.82	1.908
323.15 K, x2 = 0.5	794.42	1.877
323.15 K, x2 = 0.6	794.02	1.85
323.15 K, x2 = 0.699	793.63	1.823
323.15 K, x2 = 0.799	793.24	1.801
323.15 K, x2 = 0.899	792.85	1.791
328.15 K, x2 = 0	792.41	1.787
328.15 K, x2 = 0.1	792	1.753
328.15 K, x2 = 0.2	791.6	1.725
328.15 K, x2 = 0.3	791.22	1.697
328.15 K, x2 = 0.399	790.84	1.669
328.15 K, x2 = 0.5	790.46	1.645
328.15 K, x2 = 0.6	790.08	1.624
328.15 K, x2 = 0.699	789.7	1.609
328.15 K, x2 = 0.799	789.33	1.598
328.15 K, x2 = 0.899	788.96	1.594
